Key:
[1] = test system: SLIGRL-induced scratching behavior of mice; experiment: SLIGRL-induced acute itch model; assay type: in vivo; details: 10 mg/kg i.p.
Method: Further studies were conducted to assess the in vivo efficacy of Compound 6 and Compound 10 in mice. In detail, experiments were performed in 8 to 16 weeks old C57BL/6N mice (Charles River, Sulzfeld, Germany) and animals with a genetic deletion of Slack (Slack^−/− mice^27) of either sex. Animals were housed on a 12 h light/dark cycle with access to food and water ad libitum. […]
Acute itch behavior of the mice was monitored using a histamine-based, chloroquine-based and SLIGRL-based acute itch behavior model. […] Numbers of scratching bouts directed to the nape of the neck were assessed over 30 min by videotaping.
Antipruritic efficacy of Compound 6 in histamine-independent itch evoked by SLIGRL injection: The chloroquine-induced scratching in mice is driven by activation of MrgprA3 in the NP2 population of sensory neurons^4,29. To further explore the antipruritic efficacy of Compound 6 in histamine-independent itch, the inventors assessed the behavioral response after s.c. injection of the peptide Ser-Leu-Ile-Gly-Arg-Leu (SLIGRL) that evokes scratching by activation of MrgprC11 (ref^30), which is expressed in the NP2 and NP3 population^4. […]

[2] = test system: histamine-induced scratching of mice; experiment: Histamine-induced acute itch model; assay type: in vivo; details: i.p.
Method: Further studies were conducted to assess the in vivo efficacy of Compound 6 and Compound 10 in mice. In detail, experiments were performed in 8 to 16 weeks old C57BL/6N mice (Charles River, Sulzfeld, Germany) and animals with a genetic deletion of Slack (Slack^−/− mice^27) of either sex. Animals were housed on a 12 h light/dark cycle with access to food and water ad libitum. All experiments adhered to the guidelines of the International Association for the Study of Pain and to the ARRIVE (Animal Research: Reporting on In Vivo Experiments) guidelines, and were approved by and conducted in accordance with the regulations of the local Animal Welfare authorities (Regierungspräsidium Darmstadt, Germany). All behavioral studies were conducted during the light cycle of the day at room temperature (20-24° C.) by an observer blinded for the treatment of the animals and/or their genotype.
Acute itch behavior of the mice was monitored using a histamine-based, chloroquine-based and SLIGRL-based acute itch behavior model. In these models, three to four days before the experiment day, the fur on the dorsolateral aspect of the neck was shaved under brief isoflurane anesthesia. On the testing day, mice were habituated for 30 min in separate plexiglass cylinders (30 cm diameter). […] Numbers of scratching bouts directed to the nape of the neck were assessed over 30 min by videotaping.

IB4-binding DRG neurons = experiment: Whole-cell current-clamp recordings on IB4-binding DRG neurons; assay type: cell-based, mice; details: 50 μM
Method: A DRG neuron primary cell culture was prepared and stimulated with an inflammatory soup overnight to induce hyperexcitability. In brief, naïve C57BL/6N mice (age 4-8 weeks) were killed by CO2 inhalation and lumbar (L1-L5) DRGs were transferred to hanks' balanced salt solution (Gibco, Thermo Fisher Scientific). After incubation with 500 U/mL collagenase IV and 2.5 U/ml dispase II (both from Sigma Aldrich) for 60 min, including carefully shaking every 20 min, DRGs were washed and gently triturated twice with a fire-polished Pasteur pipette in neurobasal medium (Gibco, Thermo Fisher Scientific) including 10% FBS and 0.5 mM GlutMax (Gibco, Thermo Fisher Scientific). Dissociated DRGs were seeded onto poly-D-lysine-coated (100 μg/mL) coverslips and cultured in neurobasal medium supplemented with 2% B27 (Gibco, Thermo Fisher Scientific), 1% penicillin/streptomycin and 0.5 mM GlutMax in 5% CO2 at 37° C.
In order to simulate a pathological state, DRG neuronal cultures were incubated with an inflammatory soup (histamine: 10 μM, PGE2: 10 μM, serotonin: 10 μM, bradykinin: 10 μM)^33 overnight and performed recordings on cells that bind isolectin B4, a marker of nonpeptidergic C-fiber neurons including the itch-sensitive neuronal populations (NP1-NP3)^4 in mice. Before recording, DRG neurons were preincubated with 10 μg/mL FITC-conjugated IB4 (Sigma-Aldrich) for 5-10 min to select for Slack-expressing neurons.
Whole-cell current clamp recordings were obtained using an EPC 9 amplifier combined with Patchmaster software (HEKA Electronics, Lambrecht/Pfalz, Germany). General settings, pipette and extracellular solutions were used as described above. Evoked action potentials (AP) were elicited by 10 ms current injections starting at 0 pA in 20 pA increments to determine electrophysiological parameters. Action potential (AP) firing was induced by depolarizing current pulses (200-950 pA at 150 pA intervals, 1000 ms duration). […] Number of APs before and after compound application were counted at the same current injection step.

[3] = Microsomal stability assay in liver microsomes; assay type: in vitro ADME, Sprague-Dawley rats; details: 10 μM, rat liver microsomes
Method: For Compound 10, the metabolic stability in liver microsomes as shown in Table 4 was determined by the following assay. The test compound was dissolved in DMSO (1 mM). The solubilized test compound (5 μL, final concentration 10 μM) was preincubated at 37° C. in 432 μL of phosphate buffer (0.1 M, pH=7.4) together with 50 μL of NADPH regenerating system (30 mM glucose-6-phosphate, 4 U/mL glucose 6-phosphate dehydrogenase, 10 mM NADP, 30 mM MgCl2). After 5 min, the reaction was started by the addition of 13 μL of microsome mix from the liver of Sprague-Dawley rats (Invitrogen; 20 mg protein/mL in 0.1 M phosphate buffer) in a shaking water bath at 37° C. The reaction was stopped by adding 500 μL of ice-cold methanol at 0, 15, 30, and 60 min. The samples were centrifuged at 5000×g for 5 min at 4° C., and the test compound was quantified from the supernatants by HPLC: the composition of the mobile phase was adapted to the test compound in a range of MeOH 40-90% and water (0.1% formic acid) 10-60%. Flow rate: 1 mL/min; stationary phase: Purospher STAR, RP18, 5 μm, 125×4; precolumn: Purospher STAR, RP18, 5 μm, 4×4; detection wavelength: 254 and 280 nm; injection volume: 50 μL. Control samples were performed to check the test compound's stability in the reaction mixture. First control was without NADPH, which is needed for the enzymatic activity of the microsomes, second control was with inactivated microsomes (incubated for 20 min at 90° C.), and third control was without the test compound (to determine the baseline). The amounts of the test compound were quantified by an external calibration curve. Data are expressed as the mean±SEM remaining compound from three independent experiments. In vitro half-life was calculated by a logarithmic-linear transformation of the remaining amounts of nonmetabolized test compound versus time.

Na+ channel = experiment: SafetyScreen44 binding; design: species or system rat; details: 10 μM; substantial = higher than 50%
[4] = injection of small currents (0-220 pA)

O=C(O)COCCN1CCN(C2=Nc3ccccc3Oc3ccc(Cl)cc32)CC1 [Compound 6, 2-(2-(4-(2-Chlorodibenzo[b,f][1,4]oxazepin-11-yl)piperazin-1-yl)ethoxy) acetic acid]
SLIGRL-induced scratching behavior [1]: significantly inhibited
scratching evoked by s.c. histamine [2]: not affected
number of AP fired (IB4-binding DRG neurons; current injections 200-950 pA, inflammatory soup overnight): profound decrease
AP amplitude (IB4-binding DRG neurons; [4]): significantly lower
rheobase (IB4-binding DRG neurons; [4]): significantly increased

O=c1nc(CN2CCN(C3=Nc4ccccc4Oc4ccc(Cl)cc43)CC2)[nH][nH]1 [Compound 10, 5-((4-(2-Chlorodibenzo[b,f][1,4]oxazepin-11-yl)piperazin-1-yl)methyl)-1,2-dihydro-3H-1,2,4-triazol-3-one]
Metabolic stability (remaining compound) ([3]; 15 min): 55%
Metabolic stability (remaining compound) ([3]; 30 min): 35%
Metabolic stability (remaining compound) ([3]; 60 min): 16%

CN1CCN(C2=Nc3ccccc3Oc3ccc(Cl)cc32)CC1 [Loxapine, 2-chloro-11-(4-methylpiperazin-1-yl)dibenzo[b,f][1,4]oxazepine, reference compound]
binding inhibition, Na+ channel (Na+ channel): higher than 50%

— patent US20260258003A1, “SLACK-ACTIVATING COMPOUNDS AND THEIR MEDICAL USE” (Johann Wolfgang Goethe-Universität Frankfurt am Main, priority 2023, published 2026)
